Read-outs that look alike come from different tables or passages of the source.

Data set [1] has as its system fetal dopaminergic neurons (TH+) in culture. The data set can be described thus: dopaminergic neuron spontaneous degeneration model, second protocol (Mourlevat et al.), TH+ neuron count after 10 days. Format: cell-based. Conditions: Rattus norvegicus, 240 h, effect at 100 μM, 10 days of culture, read-out: TH+ neurons in % of control ± Std. Err. As for the experimental part: This second protocol is described in the article by Mourlevat, P. P. Michel et al. Molecular Pharmacology 2003, 64:578-586 (“Prevention of Dopaminergic Neuronal Death by Cyclic AMP in Mixed Neuronal/Glial Mesencephalic Cultures Requires the Repression of Presumptive Astrocytes”). […] Compounds according to the invention were evaluated at 50 μM except compound 4bc which was assessed at 100 μM.

Data set [2] in a line: passage of the blood-brain barrier, IP study: brain extract concentration by HPLC-MS/MS. It counts as in vivo, Rj Orl: SWISS mice. Conditions: for concentration at 2 h: male, Rj Orl: SWISS, mouse, brain extract, ip, 70 mg/kg, IP 70 mg/kg, ± SEM. As for the experimental part:
(§1) Male Rj Orl: SWISS, mice, approximately 5 weeks old and weighing between 20 and 24 g at arrival (R Janvier Breeding Center, France) were kept in the animal room at constant temperature (22±1° C.) and controlled humidity (55±20%), with a 12-hour light/dark cycle (8:00 a.m.-8:00 p.m.). During the acclimation and study period, the mice had free access to food and water. All the experiments were conducted in compliance with the conditions of decree 2001-464 of May 29, 2001 relative to animal experimentation.
Two treatment modes were used: intraperitoneal (IP) administration for 1 or 2 days or oral or per os administration for 5 days.
The solution of compound 4bc to be injected at a concentration of 7.0 g/L was prepared in a carrier containing 10% Tween 20+20% DMSO+70% 0.9% NaCl in water.
Three animal groups were created: • mice who received the carrier by IP at 10 mL/kg (Group V, n=2), • mice treated with compound 4bc by IP at 70 mg/kg and at 10 mL/kg (Group T, n=6), • one untreated mouse that was used as a […] control during analysis.
Treated mice T2 and T3 received treatments as follows:
Treated mice T1, T4, T5 and T6 as well as the mice receiving the carrier V1 and V2 received the treatments/carriers as follows:
The mice were anesthetized by an injection of 0.1 mL of a 6% sodium pentobarbital solution and then the mice were infused to eliminate the compound present in the plasma with a 0.9% NaCl solution containing heparin (200 μL of heparin choay to 5000 IU/mL in one liter of 0.9% NaCl). Each animal was infused with a minimum of 50 mL of this solution. The mouse was then decerebrated and the cerebellum, brainstem and olfactory bulbs were removed by dissection.
For the IP study, the brain was dissected into two parts (right and left hemisphere).
Each mouse brain sample treated with compound 4bc was weighed, placed in MeOH (100 μl MeOH per 10 mg of brain tissue) and then mixed by sonication. The suspensions thus obtained were centrifuged at 14,000 g for 7 minutes at 4° C. for IP or at 27,000 g for 10 minutes, at 4° C. for oral administration. The supernatants, diluted by half in MeOH, were transferred into HPLC vials for analysis of the presence of compound 4bc by HPLC-MS/MS.
(§2) Detection and quantification, based on peak area, were done by HPLC-MS/MS in MRM mode.
The HPLC system was composed of a Dionex Ultimate 3000 pump equipped with a Dionex WPS-3000PL automatic sample injector. The mass spectrometer used is a Water-Micromass Quattro Ultima equipped with an electrospray ionization source and a triple quadrupole analyzer. Data was acquired and analyzed by Masslynx 3.5.
Liquid chromatography was performed in isocratic mode with a Nucleodur™ (Macherey-Nagel) C18, 125×2.1 mm column with a particle size of 5.0 μm. The mobile phase was composed of a mixture of two phases A and B, in a proportion of 30/70. Phase A was composed of 1% acetic acid in water (v/v). Phase B was composed of 1% acetic acid in MeOH (v/v). The flow rate was set at 0.2 mL/min; the injection volume was 5 μl.
The mass spectrometer was connected to the HPLC system by using an electrospray ionization source. A switching valve was programmed before injection of the sample for rinsing and equilibration of the capillary, so as to prevent any accumulation of salt in the source capillary. The capillary voltage was set at 4000 V and the cone voltage at 80 V; the source temperature was set at 120° C.; the desolvation gas (N2) was set at a flow rate of 529 and the temperature at 350° C. The mass spectra were obtained in positive mode. The parameters were optimized to obtain the maximum molecular ion ([M+H]^+) at m/z 236.41, corresponding to compound 4bc. Collision was done by argon and the energy was set at 30 eV in MS/MS mode for detecting mass transitions: m/z 236.41→117.08; 236.41→131.10 and 236.41→158.27.

Data set [3] is described as follows: passage of the blood-brain barrier, per os study: brain extract by HPLC-MS/MS. Format: in vivo, Rj Orl: SWISS mice. Conditions: per os 150 mg/kg twice daily 4 days + last treatment day 5; euthanized 4 h to 6 h 40 after last treatment. Here is the method: as §1
The solution of compound 4bc at the concentration of 15.0 g/L to be administered was prepared in the following carrier: 0.5% Tween 80+99.5% carboxymethyl cellulose at 1%, in 0.9% NaCl in water.
Three groups were created: • mice who received the carrier orally at 10 mL/kg (Group V, n=4), • mice treated with compound 4bc orally at 150 mg/kg and at 10 mL/kg (Group T, n=6), • control mice who received no treatment (n=2). All the mice were treated or received the carrier twice daily for 4 days. On the 5th day, a last treatment was administered and the animals were euthanized between […]. after this last treatment according to the following plan: […]
as §2

A short description of data set [4]: IP study in rats: brain extract and plasma concentration. It counts as in vivo. As for the experimental part:
The kinetics in mouse brain and plasma of compound 4bc after IP administration are also shown in FIG. 8. • Another study was done in rats treated by IP. These rats received a treatment of 20 or 45 mg/kg at 10 mL/kg of a solution of compound 4bc over 2 days comprising 2 IP injections the first day and 1 IP injection the second day.

Where [5] appears, read: IP 20 mg/kg at 10 mL/kg, approximately 3 h.

As for `Cc1nc2ccc(N)cc2nc1-c1ccccc1` [Compound 4bc], the activity at 100 µM in data set [1] turned out to be 139 ± 11%. In addition, the “brain extracts at 4-6 h less concentrated than at 2 h post-treatment” value in data set [2] (IP) is 2000 times. The “elimination from the brain over time” value in data set [2] (IP) was “eliminated quickly from the brain”. Further, the “mean value of extracts analyzed later lower than previously calculated (ratio of the means)” value in data set [2] (IP, 2 h brain extracts, stored at 4° C.) was “approximately 6 times”. In addition, the “detection in old brain extracts” value in data set [2] (IP, euthanized between 4 and 6 h after the last treatment, extracts stored 40 days at 4° C., n=8) is recorded as “detectable”. Besides, the “crossing of the blood brain barrier in vivo” value in data set [2] (intraperitoneal administration) was “able to cross the blood brain barrier”. The concentration at 2 h is 1390 ng/mL in data set [2] (euthanized 2 h after last treatment, extracts stored 40 days at 4° C., n=4, read-out: mean concentration in old brain extracts) and 8830 ng/mL in data set [2] (euthanized 2 h after the last treatment, n=3, read-out: mean concentration in brain extract). In addition, the “detection in brain samples” value in data set [3] is recorded as “undetectable”. The Brain extract concentration in data set [4] (setting [5]) is 0.1 µg/mL; in data set [4] (IP 45 mg/kg at 10 mL/kg, approximately 1 h) it was 5.1 µg/mL. Moreover, the Plasma concentration in data set [4] (setting [5]) is 400 ng/mL.

The record behind these values is patent US9434701B2, “Aminoquinoxaline derivatives for treatment of neurodegenerative diseases” (CENTRE NATIONAL DE LA RECHERCHE SCIENTIFIQUE (CNRS), priority 2011, dated 2016).
